In ChEMBL document CHEMBL5715954, “Silencing c-Myc translation as a therapeutic strategy through targeting PI3Kδ and CK1ε in hematological malignancies” (Blood, 2017):

Tests used:
Design in all cases: scale not given: the % may be the effect or the level left
[1] = biological target: T1, Ephrin type-A receptor 8 (Homo sapiens) (UniProt P29322); test: Inhibition of human EPHA8 assessed as enzyme activity at 1 uM using poly[Glu:Tyr] (4:1) as substrate preincubated for 20 mins followed by [gamma-33P]-ATP addition and measured after 120 mins by radiometric Hot-SpotSM Kinase assay relative to control
T1 sequence (whole entry): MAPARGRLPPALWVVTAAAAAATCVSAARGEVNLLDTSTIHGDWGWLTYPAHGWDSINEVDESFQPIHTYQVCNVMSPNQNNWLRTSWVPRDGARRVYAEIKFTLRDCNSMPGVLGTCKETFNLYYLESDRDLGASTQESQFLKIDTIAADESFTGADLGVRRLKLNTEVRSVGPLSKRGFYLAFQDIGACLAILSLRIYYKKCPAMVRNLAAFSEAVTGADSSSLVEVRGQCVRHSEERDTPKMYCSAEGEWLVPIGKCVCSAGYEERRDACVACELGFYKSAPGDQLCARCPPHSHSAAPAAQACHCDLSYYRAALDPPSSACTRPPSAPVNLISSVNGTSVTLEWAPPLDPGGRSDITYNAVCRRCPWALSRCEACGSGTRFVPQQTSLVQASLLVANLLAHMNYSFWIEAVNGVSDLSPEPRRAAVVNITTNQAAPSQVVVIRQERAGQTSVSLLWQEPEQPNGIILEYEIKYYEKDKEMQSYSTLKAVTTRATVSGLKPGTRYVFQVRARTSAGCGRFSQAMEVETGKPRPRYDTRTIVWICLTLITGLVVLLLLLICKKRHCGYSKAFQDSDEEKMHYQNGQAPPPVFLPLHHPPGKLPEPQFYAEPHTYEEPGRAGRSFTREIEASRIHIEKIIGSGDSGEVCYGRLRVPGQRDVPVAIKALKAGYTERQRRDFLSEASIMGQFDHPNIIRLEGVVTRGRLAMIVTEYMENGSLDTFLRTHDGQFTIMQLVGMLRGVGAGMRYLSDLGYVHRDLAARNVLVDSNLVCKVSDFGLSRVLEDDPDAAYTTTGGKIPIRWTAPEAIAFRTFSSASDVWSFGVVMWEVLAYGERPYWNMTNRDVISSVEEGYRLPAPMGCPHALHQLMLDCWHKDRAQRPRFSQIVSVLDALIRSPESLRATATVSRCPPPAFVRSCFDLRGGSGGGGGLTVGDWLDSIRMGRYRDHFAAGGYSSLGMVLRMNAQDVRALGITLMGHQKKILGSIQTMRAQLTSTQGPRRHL

[2] = biological target: Leukocyte tyrosine kinase receptor (Homo sapiens) (UniProt P29376); test: Inhibition of human TYK1/LTK assessed as enzyme activity at 1 uM using EAIYAAPFAKKK as substrate preincubated for 20 mins followed by [gamma-33P]-ATP addition and measured after 120 mins by radiometric Hot-SpotSM Kinase assay relative to control
Sequence of Leukocyte tyrosine kinase receptor (Homo sapiens) (P29376 whole entry): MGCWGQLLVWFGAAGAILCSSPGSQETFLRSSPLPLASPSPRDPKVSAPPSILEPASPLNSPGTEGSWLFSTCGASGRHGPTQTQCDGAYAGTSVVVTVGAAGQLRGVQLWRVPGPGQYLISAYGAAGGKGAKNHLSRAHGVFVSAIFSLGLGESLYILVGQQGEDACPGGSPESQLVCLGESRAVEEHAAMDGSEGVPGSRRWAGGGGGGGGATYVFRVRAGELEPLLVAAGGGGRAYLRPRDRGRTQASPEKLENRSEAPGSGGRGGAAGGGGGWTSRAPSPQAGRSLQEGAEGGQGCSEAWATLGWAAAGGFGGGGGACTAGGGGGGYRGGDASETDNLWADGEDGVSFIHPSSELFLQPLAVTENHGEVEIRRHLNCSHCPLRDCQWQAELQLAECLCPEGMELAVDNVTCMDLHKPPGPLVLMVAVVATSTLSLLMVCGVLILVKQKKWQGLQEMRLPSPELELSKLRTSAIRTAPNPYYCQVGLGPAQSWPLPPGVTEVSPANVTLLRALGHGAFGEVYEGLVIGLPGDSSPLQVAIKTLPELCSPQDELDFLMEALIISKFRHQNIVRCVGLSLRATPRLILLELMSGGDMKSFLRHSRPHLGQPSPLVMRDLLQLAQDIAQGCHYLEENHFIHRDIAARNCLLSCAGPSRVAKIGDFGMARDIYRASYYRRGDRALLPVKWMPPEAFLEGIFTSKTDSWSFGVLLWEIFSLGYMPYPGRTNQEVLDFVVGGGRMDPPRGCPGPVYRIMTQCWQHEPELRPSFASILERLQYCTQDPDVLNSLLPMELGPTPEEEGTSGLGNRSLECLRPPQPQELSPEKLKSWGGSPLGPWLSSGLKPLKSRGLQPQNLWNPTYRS

[3] = biological target: CDK6/cyclin D3 (Homo sapiens) (UniProt P30281+Q00534); test: Inhibition of human CDK6/cyclin D3 assessed as enzyme activity at 1 uM using RB Protein as substrate preincubated for 20 mins followed by [gamma-33P]-ATP addition and measured after 120 mins by radiometric Hot-SpotSM Kinase assay relative to control; type: protein-complex assay
[4] = biological target: T2, Testis-specific serine/threonine-protein kinase 1 (Homo sapiens) (UniProt Q9BXA7); test: Inhibition of human STK22D assessed as enzyme activity at 1 uM using KKKVSRSGLYRSPSMPENLNRPR as substrate preincubated for 20 mins followed by [gamma-33P]-ATP addition and measured after 120 mins by radiometric Hot-SpotSM Kinase assay relative to control
T2 sequence (whole entry): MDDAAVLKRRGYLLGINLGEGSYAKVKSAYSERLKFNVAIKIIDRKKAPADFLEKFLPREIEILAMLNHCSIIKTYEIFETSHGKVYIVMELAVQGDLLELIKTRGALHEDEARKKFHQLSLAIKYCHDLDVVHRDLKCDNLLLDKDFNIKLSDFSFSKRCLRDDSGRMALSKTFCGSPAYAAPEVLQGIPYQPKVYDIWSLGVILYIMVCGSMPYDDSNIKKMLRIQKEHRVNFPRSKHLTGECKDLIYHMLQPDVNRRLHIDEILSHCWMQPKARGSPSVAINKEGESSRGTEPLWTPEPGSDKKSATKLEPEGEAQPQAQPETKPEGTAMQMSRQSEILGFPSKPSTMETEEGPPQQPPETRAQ

[5] = biological target: T3, Tyrosine-protein kinase TXK (Homo sapiens) (UniProt P42681); test: Inhibition of human TXK assessed as enzyme activity at 1 uM using EAIYAAPFAKKK as substrate preincubated for 20 mins followed by [gamma-33P]-ATP addition and measured after 120 mins by radiometric Hot-SpotSM Kinase assay relative to control
T3 sequence (whole entry): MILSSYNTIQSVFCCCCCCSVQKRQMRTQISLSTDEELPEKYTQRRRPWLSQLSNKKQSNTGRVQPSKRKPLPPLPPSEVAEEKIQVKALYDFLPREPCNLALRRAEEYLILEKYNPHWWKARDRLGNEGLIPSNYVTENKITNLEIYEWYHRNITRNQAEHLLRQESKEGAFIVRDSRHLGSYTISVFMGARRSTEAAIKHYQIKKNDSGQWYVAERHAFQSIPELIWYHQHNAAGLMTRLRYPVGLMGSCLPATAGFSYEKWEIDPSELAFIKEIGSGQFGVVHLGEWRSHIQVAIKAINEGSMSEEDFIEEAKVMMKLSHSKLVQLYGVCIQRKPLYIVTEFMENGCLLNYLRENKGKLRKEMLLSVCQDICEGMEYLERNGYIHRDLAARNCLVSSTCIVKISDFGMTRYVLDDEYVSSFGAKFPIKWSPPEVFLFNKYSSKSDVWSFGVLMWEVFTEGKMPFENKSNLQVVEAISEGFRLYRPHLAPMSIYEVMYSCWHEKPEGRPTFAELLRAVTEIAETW

Row | SMILES | Activity [1] [%] | Activity [2] [%] | Activity [3] [%] | Activity [4] [%] | Activity [5] [%]
1 | CC[C@H](Nc1ncnc2[nH]cnc12)c1nc2cccc(F)c2c(=O)n1-c1ccccc1 | 97.6 | 94.8 | 102 | 98 | 109
2 | C[C@H](Nc1ncnc2nc[nH]c12)c1cc2cccc(Cl)c2c(=O)n1-c1ccccc1 | 99.1 | 97.4 | 96.5 | 93.9 | 101
3 | CC(C)Oc1ccc(-c2nn([C@@H](C)c3oc4ccc(F)cc4c(=O)c3-c3cccc(F)c3)c3ncnc(N)c23)cc1F [UMBRALISIB] | 95.8 | 92.5 | 97.8 | 95.5 | 111
